According to paper PMC9329268 (Angewandte Chemie (International ed. in English), 2022):
In brackets after ≈: the same amount, converted by molar mass.

Experiments:
AglH = target: T1, AglH (Methanocaldococcus jannaschii, UniProt Q58513); format: biochemical; details: read-out: IC50 AglH; Methanococcus jannaschii enzyme; n = 3
T1 sequence (Q58513 1-301): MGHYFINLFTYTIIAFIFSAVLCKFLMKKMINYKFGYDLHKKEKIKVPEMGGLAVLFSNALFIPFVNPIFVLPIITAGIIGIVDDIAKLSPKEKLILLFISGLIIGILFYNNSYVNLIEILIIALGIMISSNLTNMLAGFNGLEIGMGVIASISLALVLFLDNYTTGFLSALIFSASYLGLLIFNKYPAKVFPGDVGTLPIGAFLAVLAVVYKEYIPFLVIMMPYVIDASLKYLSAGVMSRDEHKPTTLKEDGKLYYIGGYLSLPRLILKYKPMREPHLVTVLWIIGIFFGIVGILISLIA

[1] = target: T2, human dolichyl-phosphate N-acetylglucosaminephosphotransferase 1 (DPAGT1) (Homo sapiens, UniProt Q9H3H5); format: biochemical; details: read-out: IC50 DPAGT1; Human enzyme; n = 3
T2 sequence (Q9H3H5 1-408): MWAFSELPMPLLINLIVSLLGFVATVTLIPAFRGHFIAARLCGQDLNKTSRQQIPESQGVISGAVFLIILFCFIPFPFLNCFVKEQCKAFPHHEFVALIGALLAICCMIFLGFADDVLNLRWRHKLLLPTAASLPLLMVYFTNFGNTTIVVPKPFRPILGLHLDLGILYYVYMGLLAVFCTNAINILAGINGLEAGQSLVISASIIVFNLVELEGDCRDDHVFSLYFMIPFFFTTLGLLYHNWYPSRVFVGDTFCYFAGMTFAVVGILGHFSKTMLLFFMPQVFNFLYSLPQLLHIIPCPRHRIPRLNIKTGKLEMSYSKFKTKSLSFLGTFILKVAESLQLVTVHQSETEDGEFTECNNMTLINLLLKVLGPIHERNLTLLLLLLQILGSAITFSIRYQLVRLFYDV

MraY = details: read-out: IC50 MraY
[2] = tested on: Mycobacterium tuberculosis (H37Rv); assay: Antibacterial activity; format: cell-based
[3] = tested on: Mycobacterium smegmatis (ATCC607); assay: Antibacterial activity; format: cell-based
Water-solubility = format: physicochemical
[4] = tested on: healthy (normal) and cancer cell lines; details: read-out: IC50 (rapid cytotoxic activity); within 24 h; ref 4a; cited from earlier work
[5] = tested on: Bacillus cereus (ATCC1479); assay: Antibacterial activity; format: cell-based
[6] = tested on: Streptococcus salivarius (ATCC7752); assay: Antibacterial activity; format: cell-based

SMILES	IC50 (AglH) [nM]	IC50 [1] [nM]	IC50 (MraY) [nM]	MIC [2] [µg/mL]	MIC [3] [µg/mL]	solubility (Water-solubility) [µg/mL]	IC50 [4] [nM]	MIC [5] [µg/mL]	MIC [6] [µg/mL]
CC(=O)N[C@H]1[C@@H](O[C@@H]2O[C@H](C[C@@H](O)[C@H]3O[C@@H](n4ccc(=O)[nH]c4=O)[C@H](O)[C@@H]3O)[C@H](O)[C@H](O)[C@H]2NC(=O)/C=C/CCCCCCCCCC(C)C)O[C@H](CO)[C@@H](O)[C@@H]1O [TN-V (natural), tunicamycin V, reference compound]	13200	1500	2900						
CC(=O)N[C@H]1[C@@H](O[C@@H]2O[C@H](C[C@@H](O)[C@H]3O[C@@H](n4ccc(=O)[nH]c4=O)[C@H](O)[C@@H]3O)[C@H](O)[C@H](O)[C@H]2NC(=O)/C=C/CCCCCCCCCC(C)C)O[C@H](CO)[C@@H](O)[C@@H]1O [TN-V (1, synthetic), tunicamycin V]	13000	1500	2500	6.3 (≈ 7.58 µM)	6.3 (≈ 7.58 µM)	< 200	500 to 2500	0.4 (≈ 0.481 µM)	25.0 (≈ 30.1 µM)
